Data taken from paper PMC8041304, “Halogen Atoms in the Protein–Ligand System. Structural and Thermodynamic Studies of the Binding of Bromobenzotriazoles by the Catalytic Subunit of Human Protein Kinase CK2” (The Journal of Physical Chemistry. B, 2021).
Several values for one entry are separate records, joined by “and”; a condition that tells them apart may be missing. Identical values can stand only once. Like-named read-outs stand apart in the source and are kept apart here.

Assays:
hCK2α [1] = target: T1, hCK2α (Homo sapiens, UniProt P68400); assay: Fluorescence-monitored thermal denaturation (nanoDSF) of hCK2α complexes; type: binding; details: protein 2.5 μM, ligand 25 μM; for Tm (°C) at pH 7.5: hCK2α in complex with ligand; for ΔTm (°C) at pH 7.5: unfolding temperature with ligand minus without
T1 construct: made in house
Protocol: The samples were loaded into nanoDSF grade Standard Capillaries (NanoTemper Technologies) and analyzed using the Prometheus NT.48 nanoDSF device (NanoTemper Technologies). Thermal unfolding of the protein was monitored using a linear thermal ramp (1 °C·min^–1; 20–80 °C) with an excitation power of 30%.
This prompted us to measure the thermal stabilities of hCK2α and its complexes at pH 7.5 by fluorescence-monitored thermal denaturation (nanoDSF) (Table 2).

[2] = Density measurements: partial molar volume and thermal expansivity of the solute; type: physicochemical; details: 50 mM phosphate buffer pH 11; for α2^0, thermal volumetric expansivity of the solute: 20, 25, 30 °C; for V2^0, partial molar volume: 25 °C
Protocol: Partial molar volumes were estimated with a density meter Anton Paar DMA 5000 M at 20, 25, and 30 °C from the concentration–density dependency for compounds dissolved in 50 mM phosphate buffer (pH 11). The experimental procedure and the data analysis method were described previously.[36],[57],[58] The partial molar volume at 25 °C (V2^0) and thermal volumetric expansivity of the solute (α2^0 = ∂V2^0/∂T) were estimated globally from two independent dilution series. The density of pure solvent (d0) was extrapolated individually for each experimental condition (i.e., temperature and buffer preparation). The change of d0 with temperature was further used to determine thermal volumetric expansivity coefficient of the bulk buffer according to the formula α0 = −(∂d0/∂T)/d0.
According to the Lum, Chandler, and Weeks (LCW) theory, the hydrophobic interactions scale for solutes of subnanometer size with the volume of the molecule rather than its surface.[61] We have recently proposed partial molar volume as the extensive parameter to describe both the solute volume and the solute-induced reorganization of the solvation shell.[36],[57],[58],[62],[63] By analyzing density data at three temperatures (20, 25, and 30 °C), we could estimate the partial molar volume of the ligand (V2^0) and the bulk solvent density (d0(T)). We could further separate the thermal expansivity coefficient of the bulk solvent (α0) and the apparent expansivity of the solute (α2^0). The latter parameter is comprised mainly of the thermal expansion effect of the hydration shell. The values of α0 fell within the narrow range of (26.9 ± 1.3) × 10^–5 K^–1, which is close to the literature data for water (25.72 × 10^–5 K^–1 at 25 °C).[64] […] The solute thermal expansivity (α2^0), together with the change of isobaric heat capacity upon ligand binding (ΔCp,bind), has already been associated with the properties of the solvation layer.[65],[66] Importantly, α2^0 is proportional to the partial molar volume V2^0 (Figure 3D). So, V2^0 may be another descriptor of hydrophobic interactions. Consequently, the volume-normalized solute expansivity coefficient (α = α2^0/V2^0) is almost the same for all studied bromobenzotriazoles (232 ± 22 × 10^–5 K^–1). Importantly, this value substantially exceeds the thermal expansivity coefficient of the bulk buffer (α0 = 26.9 ± 1.3 × 10^–5 K^–1), clearly confirming that water organization changes with temperature more near the solute surface than in the bulk.

hCK2α [3] = target: T1, hCK2α; assay: Isothermal titration calorimetry (MicroCal iTC200), reverse titration; type: binding; details: for ΔGbind, free energy of binding: ITC; for ΔSrt, entropic term for loss of ligand rotational and translational degrees of freedom: calculated from ligand molecular mass; for Ts, temperature at which the entropy change upon ligand binding is zero: estimated from the linear fit of ΔS(T); for ΔSHE(Ts), hydrophobic-effect contribution to the entropy change upon binding: ≈ 1.35∙ΔCp,bind∙ln(Ts/386)
Protocol: ITC measurements were carried out using the MicroCal iTC200 (Malvern) calorimeter. The hCK2α samples were diluted to the required protein concentration with the 25 mM Tris-HCl pH 8 buffer containing 0.5 M NaCl. Stock ligand solutions were diluted with the appropriate DMSO volume prior to mixing with the buffer to obtain the required ligand concentration and a final DMSO content of 1%. Due to the limited solubility of halogenated benzotriazoles, all titration experiments were performed in the reverse mode, in which buffered ligand solution was placed in the calorimetric cell and titrated with the protein solution.[35]
(§1) In all experiments the maximum ligand concentration of 10 μM was used to minimize a possible contribution of the secondary binding site.

hCK2α [4] = target: T1, hCK2α; parameters: method as in PMID 25891901; details: cited from earlier work
hCK2α [5] = target: T1, hCK2α; assay: Isothermal titration calorimetry (NanoITC); type: binding; details: pH 8
Protocol: as §1

[6] = parameters: method as in PMID 32162783; details: HPLC-derived hydrophobicity; cited from earlier work
hCK2α [7] = target: T1, hCK2α; parameters: method as in PMID 23155426; details: pH 7.5; cited from earlier work
[8] = parameters: method as in doi:10.1016/j.molliq.2019.111527; details: calculated water–octanol partition coefficient; cited from earlier work
hCK2α [9] = target: T1, hCK2α; parameters: method as in PMID 32162783; details: cited from earlier work
[10] = parameters: method as in PMID 22632480; details: pH 8.0; cited from earlier work
hCK2α [11] = target: T1, hCK2α; parameters: method as in earlier work; details: ref 6 (of the supplement); read-out: KATP, dissociation constant of ATP; cited from earlier work
[12] = iTC200, 15 °C, pH 8, independent experiments separately evaluated
[13] = iTC200, 20 °C, pH 8, independent experiments separately evaluated
[14] = iTC200, 25 °C, pH 8, independent experiments separately evaluated
[15] = iTC200, 30 °C, pH 8, independent experiments separately evaluated
[16] = iTC200, 35 °C, pH 8, independent experiments separately evaluated

T1 sequence (P68400 whole entry): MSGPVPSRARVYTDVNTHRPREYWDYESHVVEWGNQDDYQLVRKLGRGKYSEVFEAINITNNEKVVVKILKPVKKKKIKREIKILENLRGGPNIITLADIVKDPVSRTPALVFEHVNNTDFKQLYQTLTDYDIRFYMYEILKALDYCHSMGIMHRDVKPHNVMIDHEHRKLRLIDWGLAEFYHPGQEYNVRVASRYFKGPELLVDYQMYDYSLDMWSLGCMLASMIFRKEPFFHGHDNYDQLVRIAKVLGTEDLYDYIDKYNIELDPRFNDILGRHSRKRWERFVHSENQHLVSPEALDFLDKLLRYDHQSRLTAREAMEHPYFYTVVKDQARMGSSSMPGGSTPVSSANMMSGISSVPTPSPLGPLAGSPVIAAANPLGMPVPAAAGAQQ

Structure (SMILES) | Tm (°C) at pH 7.5 (hCK2α [1]) | ΔTm (°C) at pH 7.5 (hCK2α [1]) | α2^0, thermal volumetric expansivity of the solute [2] | V2^0, partial molar volume [2] | ΔGbind, free energy of binding (hCK2α [3]; 25 °C, pH 8) | ΔSrt, entropic term for loss of ligand rotational and translational degrees of freedom (hCK2α [3]) | Ts, temperature at which the entropy change upon ligand binding is zero (hCK2α [3]) | Kd (hCK2α [3]; [12]) | Kd (hCK2α [3]; [13]) | Kd (hCK2α [3]; [14]) | Kd (hCK2α [3]; [15]) | Kd (hCK2α [3]; [16]) | ΔSHE(Ts), hydrophobic-effect contribution to the entropy change upon binding (hCK2α [3]) | ΔTm (°C) at pH 8 (hCK2α [4]) | Kd (hCK2α [5]; 15 °C) | ΔG (hCK2α [5]; 15 °C) | ΔH (hCK2α [5]; 15 °C) | log(τ) [6] | IC50 (hCK2α [7]) | log P [8] | also measured
Brc1cc2[nH]nnc2c(Br)c1Br [4,5,6-Br3Bt] | 53.84 ± 0.04 °C | 8.7 ± 0.1 °C | 0.49 ± 0.24 cm^3·mol^–1·K^–1 | 156.0 ± 1.0 cm^3·mol^–1 | –39.5 ± 0.4 kJ·mol^–1 | -301 J∙mol-1∙K-1 | 280 ± 36 K | 89 nM and 51 nM | 114 nM and 130 nM | 123 nM and 116 nM | 189 nM and 109 nM | 160 nM and 215 nM | 295 ± 30 J∙mol-1∙K-1 | 8.4 ± 0.1 °C | 65 ± 13 nM | -9.49 ± 0.12 kcal/mol | -6.93 ± 0.14 kcal/mol | –0.20 | 0.38 ± 0.02 µM | 2.96 | ΔS (hCK2α [5]; 15 °C): 37 ± 4 J·mol-1·K-1; Kd (hCK2α [5]; 20 °C): 81 ± 19 nM; ΔG (hCK2α [5]; 20 °C): -9.51 ± 0.14 kcal/mol; ΔH (hCK2α [5]; 20 °C): -7.43 ± 0.22 kcal/mol; ΔS (hCK2α [5]; 20 °C): 30 ± 5 J·mol-1·K-1; Kd (hCK2α [5]; 25 °C): 42 ± 17 nM; ΔG (hCK2α [5]; 25 °C): -10.1 ± 0.239 kcal/mol; ΔH (hCK2α [5]; 25 °C): -9.46 ± 0.311 kcal/mol; ΔS (hCK2α [5]; 25 °C): 9 ± 4 J·mol-1·K-1; Kd (hCK2α [5]; 30 °C): 96 ± 17 nM; ΔG (hCK2α [5]; 30 °C): -9.73 ± 0.12 kcal/mol; ΔH (hCK2α [5]; 30 °C): -11.2 ± 0.287 kcal/mol; ΔS (hCK2α [5]; 30 °C): -21 ± 6 J·mol-1·K-1; Kd (hCK2α [5]; 35 °C): 217 ± 94 nM; ΔG (hCK2α [5]; 35 °C): -9.39 ± 0.263 kcal/mol; ΔH (hCK2α [5]; 35 °C): -13.5 ± 1.46 kcal/mol; ΔS (hCK2α [5]; 35 °C): -56 ± 23 J·mol-1·K-1
Clc1c(Br)c(Br)c(Cl)c2[nH]nnc12 [5,6-Br2-4,7-Cl2Bt] |  |  |  |  |  |  |  |  |  |  |  |  |  |  |  |  |  |  |  |  | affinity to hCK2α among the four isomeric dibromo–dichlorobenzotriazoles (hCK2α [9]): highest affinity
Brc1cc2nn[nH]c2cc1Br [5,6-Br2Bt, 5,6-bromobenzotriazole] | 52.96 ± 0.05 °C | 7.8 ± 0.1 °C | 0.33 ± 0.14 cm^3·mol^–1·K^–1 | 150.0 ± 0.6 cm^3·mol^–1 | –40.9 ± 0.3 kJ·mol^–1 | -291 J∙mol-1∙K-1 | 268 ± 42 K |  | 32 nM and 33 nM | 50 nM and 27 nM | 84 nM and 69 nM | 108 nM and 115 nM | 291 ± 34 J∙mol-1∙K-1 | 7.4 ± 0.1 °C | 59 ± 49 nM | -9.54 ± 0.478 kcal/mol | -13.5 ± 1.12 kcal/mol | –0.30 | 0.56 ± 0.02 µM | 2.36 | fraction of the ligand that is neutral [10]: 0.08; ΔS (hCK2α [5]; 15 °C): -58 ± 18 J·mol-1·K-1; Kd (hCK2α [5]; 20 °C): 60 ± 54 nM; ΔG (hCK2α [5]; 20 °C): -9.7 ± 0.526 kcal/mol; ΔH (hCK2α [5]; 20 °C): -14.8 ± 1.34 kcal/mol; ΔS (hCK2α [5]; 20 °C): -73 ± 21 J·mol-1·K-1; Kd (hCK2α [5]; 25 °C): 46 ± 26 nM; ΔG (hCK2α [5]; 25 °C): -10 ± 0.335 kcal/mol; ΔH (hCK2α [5]; 25 °C): -16.9 ± 0.765 kcal/mol; ΔS (hCK2α [5]; 25 °C): -97 ± 12 J·mol-1·K-1; Kd (hCK2α [5]; 30 °C): 150 ± 120 nM; ΔG (hCK2α [5]; 30 °C): -9.44 ± 0.454 kcal/mol; ΔH (hCK2α [5]; 30 °C): -18.3 ± 0.693 kcal/mol; ΔS (hCK2α [5]; 30 °C): -122 ± 11 J·mol-1·K-1; Kd (hCK2α [5]; 35 °C): 93 ± 49 nM; ΔG (hCK2α [5]; 35 °C): -9.92 ± 0.311 kcal/mol; ΔH (hCK2α [5]; 35 °C): -20.8 ± 1.86 kcal/mol; ΔS (hCK2α [5]; 35 °C): -148 ± 26 J·mol-1·K-1
Brc1ccc2n[nH]nc2c1 [5-BrBt] | 47.17 ± 0.02 °C | 2.0 ± 0.1 °C | 0.14 ± 0.20 cm^3·mol^–1·K^–1 | 132.7 ± 0.8 cm^3·mol^–1 | –34.4 ± 0.6 kJ·mol^–1 | -277 J∙mol-1∙K-1 | 281 ± 152 K | 880 nM and 490 nM | 730 nM and 550 nM | 930 ± 280 nM | 1270 nM and 990 nM | 1330 nM and 1890 nM | 120 ± 56 J∙mol-1∙K-1 | 1.8 ± 0.1 °C |  |  |  | –0.41 | 26 ± 3 µM | 1.73 | fraction of the ligand that is neutral [10]: 0.26; ΔG (hCK2α [3]; [14]): -8.22 ± 0.14 kcal/mol and -8.22 ± 0.359 kcal/mol; ΔSother, entropy change assigned to all other processes accompanying ligand binding (hCK2α [3]; ΔSrt + ΔSHE(Ts) + ΔSother = 0): 157 ± 56 J∙mol-1∙K-1
Nc1ncnc2c1ncn2[C@@H]1O[C@H](COP(=O)(O)OP(=O)(O)OP(=O)(O)O)[C@@H](O)[C@H]1O [ATP] |  |  |  |  |  |  |  |  |  |  |  |  |  |  |  |  |  |  |  |  | Kd (hCK2α [11]): 4300 ± 1800 nM
